Measured values as given in PubChem BioAssay AID2060599 (Molecular Pharmacology Branch, DTP, NCI, 2025).

Test system: 817829-284-R-J1-PDC complex spheroids, viability
Assay: Anticancer human tumor 817829-284-R-J1-PDC patient-derived colon adenocarcinoma cell line growth inhibition [CLK]
Conditions: for IC50: curve of first compound; for viability, T/C: stronger effect = lower value; active = viability on the fitted dose curve at most 10% of control; inactive = the rest
Description: A high-throughput screen of multi-cell type tumor spheroids was designed to identify active combinations of […] and targeted small molecules. Complex spheroids include a stromal component modeled by human endothelial cells (HUVEC) and fibroblasts modeled by human mesenchymal stem cells (MSCs). The concentration ranges selected for each drug and investigational agent were based upon clinically achievable concentrations if the clinical Cmax of the agent was known.
Compounds. The drugs and investigational agents: cirtuvivint (SM08502; NSC835563), CC-671 (NSC850746), vemurafenib (NSC761431), tapotoclax (NSC804041), sotorasib (NSC818433), adagrasib (NSC831453), MRTX-1133 (NSC836407), BAY2416964 (NSC825713), copanlisib (NSC816437), inavolisib (NSC800729), abemaciclib (NSC768073), osimertinib (NSC779217), entinostat (NSC756642), eltanexor (KPT-8602, NSC794443), venetoclax (NSC766270), ceralasertib (NSC777638), bortezomib (NSC756655), olaparib (NSC753686), talazoparib (NSC767125), alisertib (NSC759677), peposertib (NSC802822), gemcitabine (NSC613327), 5-fluorouracil (NSC19893), SN-38 (NSC673596), oxaliplatin (NSC266046), paclitaxel (NSC125973), and doxorubicin (NSC123127), were obtained from the National Cancer Institute (NCI) Developmental Therapeutics Program Chemical Repository. The FDA-approved anticancer drug set is available from the Developmental Therapeutics Program at https://dtp.cancer.gov/organization/dscb/obtaining/available plates.htm. […] The stock solutions were prepared in dimethyl sulfoxide (DMSO, Sigma-Aldrich, St. Louis, MO, cat. D2650), except for the platinum complexes which were prepared in saline (Quality Biological, Gaithersburg, MD, cat. 114-055-101), at 800-fold the tested concentration and stored at -70 degrees C prior to their use. All drugs and investigational agents were tested over a range starting from a high concentration at or near the clinical Cmax and decreasing in half-log increments. If the clinical Cmax for an agent had not been determined, the highest concentration tested was 10 microM.
Cell Culture. All cells were maintained in an incubator at 37 degrees C and 5% CO2 with 95% humidity. The PDC lines were cultured according to standard operating procedures established by the NCI PDMR. Briefly, all PDCs were thawed and cultured in Matrigel-coated flasks prepared with a working solution of 1X Ham's F-12 nutrient mix, without supplementation (Invitrogen, Waltham, MA, cat. 11765054), 100 U/mL penicillin-streptomycin (Invitrogen, cat. 15140122), and 2.5% Matrigel (Corning Inc., Corning, NY, cat. 354248) for the first three passages. The 947758-054-R-J2-PDC line was cultured in 6B/Colon 1A media, which includes advanced DMEM/F-12 (Thermo Fisher Scientific, cat. 12634028), 10 mM HEPES (Thermo Fisher Scientific, cat. 15630080), 1X GlutaMAX supplement (Thermo Fisher Scientific, cat. 35050061), 0.1 mg/mL primocin (InvivoGen, cat. ant-pm-2), 10% defined fetal bovine serum, heat inactivated (HyClone Laboratories Inc., cat. SH30070.03HI), 1.25 mM N-Acetyl-L-cysteine (Sigma-Aldrich, cat. A9165), 10 mM nicotinamide (Sigma-Aldrich, cat. N0636), 1X B-27 supplement (Thermo Fisher Scientific, cat. 17504044), 1X N-2 supplement (Thermo Fisher Scientific, cat. 17502048), and 10 microM Y-27632 dihydrochloride (Tocris Bioscience, cat. 1254). The 876862-298-R-J1-PDC was cultured in 6E media, which includes all 6B/Colon 1A media components plus 50% L-WRN conditioned media (ATCC, cat. CRL-3276), 50 ng/mL recombinant human EGF recombinant protein (hEGF; Thermo Fisher Scientific, cat. PHG0311), 10 ng/mL recombinant human fibroblast growth factor 10 (hGFG-10; PeproTech, cat. 100-26), 1 ng/mL recombinant human fibroblast growth factor 2 (hFGF-2; PeproTech, cat. 100-18B), and 1 µM prostaglandin E2 (PGE2; Tocris, cat. 2296). The 227483-062-R1-J1-PDC line was cultured in Panc media, containing all 6E components except hFGF-2, with the addition of 500 nM SB-431542 (Selleckchem, cat. S1067) and 10 nM gastrin (Tocris, cat. 3006). […]

[1] = second compound 0.0316 µM, first compound 0.0316 µM
[2] = second compound 0.0316 µM, first compound 0.1 µM
[3] = second compound 0.0316 µM, first compound 0.316 µM
[4] = second compound 0.0316 µM, first compound 1 µM
[5] = second compound 0.0316 µM, first compound 3.16 µM
[6] = second compound 0.0316 µM, first compound 10 µM
[7] = second compound 0.1 µM, first compound 0.0316 µM
[8] = second compound 0.1 µM, first compound 0.1 µM
[9] = second compound 0.1 µM, first compound 0.316 µM
[10] = second compound 0.1 µM, first compound 1 µM
[11] = second compound 0.1 µM, first compound 3.16 µM
[12] = second compound 0.1 µM, first compound 10 µM
[13] = second compound 0.316 µM, first compound 0.0316 µM
[14] = second compound 0.316 µM, first compound 0.1 µM
[15] = second compound 0.316 µM, first compound 0.316 µM
[16] = second compound 0.316 µM, first compound 1 µM
[17] = second compound 0.316 µM, first compound 3.16 µM
[18] = second compound 0.316 µM, first compound 10 µM
[19] = second compound 1 µM, first compound 0.0316 µM
[20] = second compound 1 µM, first compound 0.1 µM
[21] = second compound 1 µM, first compound 0.316 µM
[22] = second compound 1 µM, first compound 1 µM
[23] = second compound 1 µM, first compound 3.16 µM
[24] = second compound 1 µM, first compound 10 µM
[25] = second compound 3.16 µM, first compound 0.0316 µM
[26] = second compound 3.16 µM, first compound 0.1 µM
[27] = second compound 3.16 µM, first compound 0.316 µM
[28] = second compound 3.16 µM, first compound 1 µM
[29] = second compound 3.16 µM, first compound 3.16 µM
[30] = second compound 3.16 µM, first compound 10 µM
[31] = second compound 10 µM, first compound 0.0316 µM
[32] = second compound 10 µM, first compound 0.1 µM
[33] = second compound 10 µM, first compound 0.316 µM
[34] = second compound 10 µM, first compound 1 µM
[35] = second compound 10 µM, first compound 3.16 µM
[36] = second compound 10 µM, first compound 10 µM
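Note: spheroids exposed to the agents for seven days before readout.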

CCCS(=O)(=O)Nc1ccc(F)c(C(=O)c2c[nH]c3ncc(-c4ccc(Cl)cc4)cc23)c1F + CN1CCN(c2cc(C(=O)Nc3cc4cc(-c5cnn(C)c5)ccc4cn3)ccn2)CC1
< 31.6 nM: IC50 (second compound 0.0316 µM) | IC50 (second compound 0.1 µM) | IC50 (second compound 0.316 µM) | IC50 (second compound 1 µM) | IC50 (second compound 3.16 µM) | IC50 (second compound 10 µM)
active: viability, T/C [11] 12.2% | viability, T/C [12] 3.08% | viability, T/C [13] 1.39% | viability, T/C [14] 1.67% | viability, T/C [15] 1.88% | viability, T/C [16] 1.17% | viability, T/C [17] 1.2% | viability, T/C [18] 0.66% | viability, T/C [19] 0.09% | viability, T/C [20] 0.11% | viability, T/C [21] 0.15% | viability, T/C [22] 0.09% | viability, T/C [23] 0.09% | viability, T/C [24] 0.08% | viability, T/C [25] 0.09% | viability, T/C [26] 0.18% | viability, T/C [27] 0.1% | viability, T/C [28] 0.2% | viability, T/C [29] 0.13% | viability, T/C [30] 0.09% | viability, T/C [31] 0.06% | viability, T/C [32] 0.08% | viability, T/C [33] 0.1% | viability, T/C [34] 0.18% | viability, T/C [35] 0.21% | viability, T/C [36] 0.17%
inactive: viability, T/C [1] 53.5% | viability, T/C [2] 41.8% | viability, T/C [3] 39.8% | viability, T/C [4] 43.8% | viability, T/C [5] 35.6% | viability, T/C [6] 18.4% | viability, T/C [7] 19% | viability, T/C [8] 17.5% | viability, T/C [9] 14.2% | viability, T/C [10] 11.8%

COC1C=CCC(C)C(C)S(=O)(=O)NC(=O)c2ccc3c(c2)N(CC2CCC21)CC1(CCCc2cc(Cl)ccc21)CO3 (centres undefined) + CN1CCN(c2cc(C(=O)Nc3cc4cc(-c5cnn(C)c5)ccc4cn3)ccn2)CC1
inactive: viability, T/C [1] 52.5% | viability, T/C [2] 70% | viability, T/C [3] 51.2% | viability, T/C [4] 63.3% | viability, T/C [5] 28.2% | viability, T/C [7] 21.4% | viability, T/C [8] 18.1% | viability, T/C [9] 16.3% | viability, T/C [10] 12.3%
< 31.6 nM: IC50 (second compound 0.1 µM) | IC50 (second compound 0.316 µM) | IC50 (second compound 1 µM) | IC50 (second compound 3.16 µM) | IC50 (second compound 10 µM)
1410 nM: IC50 (second compound 0.0316 µM)
active: viability, T/C [6] 7.26% | viability, T/C [11] 5.31% | viability, T/C [12] 2.6% | viability, T/C [13] 1.91% | viability, T/C [14] 1.47% | viability, T/C [15] 1.45% | viability, T/C [16] 1.31% | viability, T/C [17] 1.5% | viability, T/C [18] 0.95% | viability, T/C [19] 0.08% | viability, T/C [20] 0.21% | viability, T/C [21] 0.16% | viability, T/C [22] 0.07% | viability, T/C [23] 0.35% | viability, T/C [24] 0.05% | viability, T/C [25] 0.15% | viability, T/C [26] 0.16% | viability, T/C [27] 0.23% | viability, T/C [28] 0.46% | viability, T/C [29] 0.28% | viability, T/C [30] 0.08% | viability, T/C [31] 0.48% | viability, T/C [32] 0.13% | viability, T/C [33] 0.19% | viability, T/C [34] 0.31% | viability, T/C [35] 0.37% | viability, T/C [36] 0.17%
